Data set [1] has as its system Mus musculus. Nature of the data set: In vivo inhibition of PHD2 in Balb/c mouse assessed as EPO levels in serum at 40 mg/kg, po after 6 hrs by ELISA. It counts as functional. (In an ELISA, binding on a coated surface is turned into a signal by an enzyme label.)
The nature of data set [2]: Half life in patient administered as qd. It counts as ADME, organism-based. Particulars: human, in vivo.
The nature of data set [3]: Effective half life in Sprague-Dawley rat at 1 mg/kg, iv. It counts as ADME, organism-based. Conditions: in vivo, read-out: t1/2eff (converted).
The nature of data set [4]: Protein binding in human serum at 1 ug/ml after 4 hrs by equilibrium dialysis method. Conditions: read-out: PB (converted). It counts as ADME, cell-free.
A short description of data set [5]: Protein binding in Sprague-Dawley rat serum at 1 ug/ml after 4 hrs by equilibrium dialysis method. Type of data set: ADME, cell-free. Particulars: read-out: PB (converted). On the technique in general: In equilibrium dialysis only unbound substance equilibrates across the membrane.
Data set [6] can be described thus: Drug metabolism in Sprague-Dawley rat hepatocytes assessed as oxidative metabolism at 1 uM after 1 hr by LC-MS/MS method. It counts as ADME, cell-based, Hepatocyte. Particulars: read-out: Drug metabolism.
The test system of data set [7] is Homo sapiens. Nature of the data set: Terminal half life in patient with hepatic impairment at 100 mg, po. It counts as ADME, organism-based. Particulars: in vivo.
A short description of data set [8]: Drug metabolism in Sprague-Dawley rat hepatocytes assessed as oxidative metabolism at 1 uM after 4 hrs by LC-MS/MS method. Type of data set: ADME, cell-based, Hepatocyte. Conditions: read-out: Drug metabolism.
Data set [9] can be described thus: Protein binding in beagle dog plasma at 0.3 ug/ml after 8 hrs by equilibrium dialysis method. Particulars: read-out: PPB (converted). It counts as ADME, cell-free, Canis lupus familiaris.
Data set [10] in a line: Protein binding in human plasma at 0.3 ug/ml after 8 hrs by equilibrium dialysis method. Type of data set: ADME, cell-free. Particulars: read-out: PPB (converted).
Data set [11] in a line: Drug metabolism in human hepatocytes assessed as oxidative metabolism at 1 uM after 4 hrs by LC-MS/MS method. It counts as ADME, cell-based, Hepatocyte. Conditions: read-out: Drug metabolism.
Data set [12] is described as follows: Protein binding in Sprague-Dawley rat plasma at 0.3 ug/ml after 8 hrs by equilibrium dialysis method. Particulars: read-out: PPB (converted). It counts as ADME, cell-free.
Data set [13] is described as follows: Drug metabolism in beagle dog hepatocytes assessed as oxidative metabolism at 1 uM after 4 hrs by LC-MS/MS method. Particulars: read-out: Drug metabolism. It counts as ADME, cell-based, Canis lupus familiaris, Hepatocyte.
Data set [14] in a line: Cmax in Sprague-Dawley rat at 10 mg/kg, po by LC-MS/MS method. It counts as ADME, organism-based. On the set-up: dose 10 mg/kg, route oral. Particulars: in vivo.
Data set [15] can be described thus: Total clearance in Sprague-Dawley rat at 1 mg/kg, iv by LC-MS/MS method. It counts as ADME, organism-based. Particulars: in vivo.
Data set [16] is described as follows: Oral bioavailability in beagle dog at 5 mg/kg by LC-MS/MS method. Particulars: in vivo. It counts as ADME, organism-based, Canis lupus familiaris.
The nature of data set [17]: Tmax in beagle dog at 5 mg/kg, po by LC-MS/MS method. Particulars: in vivo. Type of data set: ADME, organism-based, Canis lupus familiaris.
Data set [18] is described as follows: Tmax in Sprague-Dawley rat at 10 mg/kg, po by LC-MS/MS method. Type of data set: ADME, organism-based. Conditions: in vivo.
Data set [19] in a line: Volume of distribution at steady state in Sprague-Dawley rat at 1 mg/kg, iv by LC-MS/MS method. It counts as ADME, organism-based. Particulars: in vivo, read-out: Vdss.
The nature of data set [20]: Half life in Sprague-Dawley rat at 1 mg/kg, iv by LC-MS/MS method. It counts as ADME, organism-based. Particulars: in vivo.
Data set [21] is described as follows: Volume of distribution at steady state in beagle dog at 1 mg/kg, iv by LC-MS/MS method. Type of data set: ADME, organism-based, Canis lupus familiaris. Particulars: in vivo, read-out: Vdss.
Data set [22] is described as follows: Half life in beagle dog at 1 mg/kg, iv by LC-MS/MS method. It counts as ADME, organism-based, Canis lupus familiaris. Particulars: in vivo.
Data set [23] can be described thus: Oral bioavailability in Sprague-Dawley rat at 10 mg/kg by LC-MS/MS method. Type of data set: ADME, organism-based. Particulars: in vivo.
Data set [24] can be described thus: Total clearance in beagle dog at 1 mg/kg, iv by LC-MS/MS method. Type of data set: ADME, organism-based, Canis lupus familiaris. Conditions: in vivo.
Data set [25] concerns the target Egl nine homolog 1 (Rattus norvegicus, UniProt P59722). Nature of the data set: Inhibition of rat PHD2 using FITC-HIF1-alpha as substrate after 10 mins in presence of 2-oxoglutarate by fluorescence polarization assay. On the technique in general: Fluorescence polarisation rises when a labelled molecule tumbles more slowly, as on binding a larger partner.
For data set [26], the system named is Rattus norvegicus. Description: In vivo inhibition of PHD2 in Sprague-Dawley rat assessed as EPO levels in serum at 40 mg/kg, po after 8 hrs by ELISA. It counts as functional.
Data set [27] can be described thus: Cmax in beagle dog at 5 mg/kg, po by LC-MS/MS method. It counts as ADME, organism-based, Canis lupus familiaris. Set-up: dose 5 mg/kg, route oral. Conditions: in vivo.
Data set [28] is described as follows: Half life in Sprague-Dawley rat at 10 mg/kg, po by LC-MS/MS method. Type of data set: ADME, organism-based. Particulars: in vivo.
Data set [29] in a line: Half life in beagle dog at 5 mg/kg, po by LC-MS/MS method. Particulars: in vivo. Type of data set: ADME, organism-based, Canis lupus familiaris.
The test system of data set [30] is Mus musculus. Description: In vivo inhibition of PHD2 in Balb/c mouse assessed as EPO levels in serum at 100 mg/kg, po after 6 hrs by ELISA. It counts as functional.
The subject of data set [31] is Rattus norvegicus. Nature of the data set: In vivo inhibition of PHD2 in Sprague-Dawley rat assessed as increase in EPO levels in serum at 100 mg/kg, po after 6 hrs by ELISA. It counts as functional, organism-based.

A word on the Cmax: it is the peak of the concentration-time curve. In general, clearance refers to the rate of elimination divided by the concentration. A higher clearance goes with a high capacity for elimination. In general, bioavailability refers to the share of a dose that reaches the circulation, judged against a reference dose that is usually intravenous. As a reminder, the Tmax is the time from dosing to the highest level. One may read the IC50 as the concentration that inhibits the measured activity by half.

Calls of active or inactive are those of the source. The rule behind the calls is not given here.

Chain of Egl nine homolog 1 (P59722 whole entry): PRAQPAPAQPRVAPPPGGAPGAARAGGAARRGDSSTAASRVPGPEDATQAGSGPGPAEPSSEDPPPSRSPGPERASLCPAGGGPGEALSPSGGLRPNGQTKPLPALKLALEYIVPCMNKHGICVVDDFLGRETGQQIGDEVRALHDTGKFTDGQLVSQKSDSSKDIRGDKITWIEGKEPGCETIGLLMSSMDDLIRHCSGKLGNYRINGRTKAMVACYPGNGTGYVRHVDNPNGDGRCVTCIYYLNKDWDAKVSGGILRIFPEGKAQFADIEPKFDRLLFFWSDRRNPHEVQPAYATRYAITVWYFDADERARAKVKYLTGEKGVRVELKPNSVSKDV

Consider `O=C([O-])CNC(=O)C1=C(O)CCN(Cc2ccc(OCCC3CC3)cn2)C1=O.[Na+]`, for which the “serum EPO level” value in data set [1] is 471 pg/mL.

As for `O=C(O)CNC(=O)C1C(=O)N(C2CCCCC2)C(=O)N(C2CCCCC2)C1=O` [DAPRODUSTAT], the half-life in [2] is 2.7 h.

Consider `O=C([O-])CNC(=O)C1=C(O)CCN(Cc2ccc(OCCC3CC3)nc2)C1=O.[Na+]`, for which the half-life in [3] was 0.42 h. Also, in data set [1], the “serum EPO level” value is 7530 pg/mL.

In the case of `O=C(O)CNC(=O)C1=C(O)CCN(Cc2ccc(OC(F)(F)F)cc2)C1=O`, the half-life in [3] was 2.8 h.

Take `Cc1ccc(Oc2ccc(CN3CCC(O)=C(C(=O)NCC(=O)[O-])C3=O)nc2)cc1.[Na+]`: in [1], the “serum EPO level” value amounted to 1488 pg/mL.

In data set [2], `O=C(O)CNC(=O)c1ncc(-c2cccc(Cl)c2)cc1O` [VADADUSTAT] showed a half-life of 4.5 h.

Consider `Cc1ccc(Oc2ccc(CN3CCC(O)=C(C(=O)NCC(=O)O)C3=O)cc2)cc1`, for which, in data set [3], the half-life is 0.52 h. For the same compound, the “serum EPO level” value in data set [1] was determined as 4441 pg/mL.

As for `O=C(O)CNC(=O)C1=C(O)CCN(Cc2ccc(-c3ccccc3)cc2)C1=O`, the fraction unbound at 4 h, 1 ug/ml was 0.011 in data set [4] and 0.007 in data set [5]. The metabolised at 1 h, 1 µM in [6] amounted to 34.4%.

Regarding `O=C(O)CNC(=O)C1=C(O)CCN(Cc2ccc(C(F)(F)F)cc2)C1=O`, in [3], the half-life was 4.9 h.

Consider `O=C(O)CNC(=O)C1=C(O)CC2(CCC2)N(Cc2ccc(-c3ccccc3)cc2)C1=O`, for which the fraction unbound at 4 h, 1 ug/ml in data set [4] was 0.005; in [5], below 0.006. Also, in [6], the metabolised at 1 h, 1 µM worked out at 13%.

On to `O=C([O-])CNC(=O)C1=C(O)CCN(Cc2ccc(OC3CC3)cc2)C1=O.[Na+]`, for which the half-life in [3] was 0.55 h.

`CC1CC(O)=C(C(=O)NCC(=O)O)C(=O)N1Cc1ccc(-c2ccccc2)cc1` (centres undefined): the fraction unbound at 4 h, 1 ug/ml in [4] and in [5] was below 0.006 each time. In [6], the metabolised at 1 h, 1 µM amounted to 3.8%.

In the case of `CC1CN(Cc2ccc(-c3ccccc3)cc2)C(=O)C(C(=O)NCC(=O)O)=C1O` (centres undefined), the fraction unbound at 4 h, 1 ug/ml in data set [4] and in data set [5] was below 0.005 throughout. Moreover, in data set [6], the metabolised at 1 h, 1 µM turned out to be 6%.

As to `O=C([O-])CNC(=O)C1=C(O)CCN(Cc2ccc(OCCC3CC3)cc2)C1=O.[Na+]`, the half-life in data set [3] was 0.46 h. The “serum EPO level” value in data set [1] is 8163 pg/mL.

As to `O=C(O)CNC(=O)C1=C(O)CCN(Cc2ccc(OCC3CC3)cc2)C1=O`, in data set [3], the half-life is 1.4 h. In addition, the “serum EPO level” value in data set [1] amounted to 6258 pg/mL.

Take `Cc1ccc(Oc2ccc(CN3CCC(O)=C(C(=O)NCC(=O)O)C3=O)cn2)cc1`: the half-life in [3] is 0.72 h. In data set [1], the “serum EPO level” value is 3497 pg/mL.

Turning to `Cc1nc(C(=O)NCC(=O)O)c(O)c2ccc(Oc3ccccc3)cc12` [ROXADUSTAT], the “beta t1/2” value in data set [7] came out at 13 h.

As for `O=C([O-])CNC(=O)C1=C(O)CCN(Cc2ccc(Oc3ccc(Cl)cc3)nc2)C1=O.[Na+]`, the metabolised at 4 h, 1 µM in data set [8] was 0.9%; in [11], 5.7%; in data set [13], -0.3%. Besides, the figures for the fraction unbound at 8 h, 0.3 ug/ml in data set [9], in data set [10] and in data set [12] were 0.011, 0.009 and 0.011, respectively. Further, the “serum EPO level” value in data set [1] stood at 8371 pg/mL.

Turning to `O=C(O)CNC(=O)C1=C(O)CCN(Cc2ccc(Oc3ccc(Cl)cc3)nc2)C1=O`, the Cmax in [14] is 10700 ng/mL; in [27], 6980 ng/mL. Further, the clearance was 7.28 mL/min/kg in data set [15] and 3.28 mL/min/kg in [24]. In addition, the figures for the bioavailability in [16] and in data set [23] were 52.8% and 82.8%, respectively. Moreover, the Tmax amounted to 0.75 h in [17] and 0.25 h in data set [18]. Besides, the Vd in data set [19] came out at 0.904 L/kg; in data set [21], 0.231 L/kg. For the same compound, the half-life in data set [20] is 3.1 h; in data set [22], 4.7 h; in [3], 1.5 h; in data set [28], 2.3 h; in data set [29] it was 3.5 h. In data set [25], the IC50 was determined as 18 nM. Further, the Activity in [26] turned out to be 3003 pg/mL.

As for `O=C(O)CNC(=O)C1=C(O)CC2(CCCCC2)N(Cc2ccc(-c3ccccc3)cc2)C1=O`, in [30], the Activity was 2323 pg/mL. In addition, the result in [31] was inactive. Also, the fraction unbound at 4 h, 1 ug/ml in data set [4] and in data set [5] was below 0.006 in each case. Moreover, in [6], the metabolised at 1 h, 1 µM came out at 31.3%.

The values are drawn from ChEMBL document CHEMBL4118138, “Discovery of novel 2-[(4-hydroxy-6-oxo-2,3-dihydro-1H-pyridine-5-carbonyl)amino]acetic acid derivatives as HIF prolyl hydroxylase inhibitors for treatment of renal anemia” (Bioorg Med Chem Lett, 2018).
